In patent US10582709B2, “Butyrolactones as herbicides” (FMC Corporation, priority 2015, dated 2020):

Columns and labels:
Assay type in all cases: in vivo
[1] = test system: barnyardgrass (Echinochloa crus-galli); test: Test A preemergence, barnyardgrass; conditions: 1000 g ai/ha, visual rating after approx. 10 d, 0 to 100 scale, 0 no effect, 100 complete control
Outline: (§1)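 Seeds in loam–sand blend received a preemergence directed soil spray; postemergence sprays went on plants 2–10 cm tall at the one- to two-leaf stage. Compounds were in non-phytotoxic solvent with surfactant. After ~10 d in greenhouse, injury was rated visually versus untreated controls, 0 (no effect) to 100 (complete control).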

[2] = test system: crabgrass (large crabgrass, Digitaria sanguinalis); test: Test A preemergence, crabgrass; conditions: 1000 g ai/ha, visual rating after approx. 10 d, 0 to 100 scale, 0 no effect, 100 complete control
Excerpt: (§2) Seeds of plant species selected from barnyardgrass (Echinochloa crus-galli), crabgrass (large crabgrass, Digitaria sanguinalis), kochia (Kochia scoparia), ragweed (common ragweed, Ambrosia elatior), morningglory (Ipomoea spp.), velvetleaf (Abutilon theophrasti), ryegrass, Italian (Italian ryegrass, Lolium multiflorum), foxtail, giant (giant foxtail, Setaria faberii), wheat (Triticum aestivum), corn (Zea mays), and pigweed (Amaranthus retroflexus), were planted into a blend of loam soil and sand and treated preemergence with a directed soil spray using test chemicals formulated in a non-phytotoxic solvent mixture which included a surfactant. At the same time, plants selected from these crop and weed species and also blackgrass (Alopecurus myosuroides), and galium (catchweed bedstraw, Galium aparine), were planted in pots containing the same blend of loam soil and sand and treated with postemergence applications of test chemicals formulated in the same manner. Plants ranged in height from 2 to 10 cm and were in the one- to two-leaf stage for the postemergence treatment. Treated plants and untreated controls were maintained in a greenhouse for approximately 10 d, after which time all treated plants were compared to untreated controls and visually evaluated for injury. Plant response ratings, summarized in Table A, are based on a 0 to 100 scale where 0 is no effect and 100 is complete control. A dash (-) response means no test result.

[3] = test system: morningglory (Ipomoea spp.); test: Test A preemergence, morningglory; conditions: 1000 g ai/ha, visual rating after approx. 10 d, 0 to 100 scale, 0 no effect, 100 complete control
Excerpt: as §2

[4] = test system: velvetleaf (Abutilon theophrasti); test: Test A preemergence, velvetleaf; conditions: 1000 g ai/ha, visual rating after approx. 10 d, 0 to 100 scale, 0 no effect, 100 complete control
Excerpt: as §2

[5] = test system: foxtail, giant (giant foxtail, Setaria faberii); test: Test A preemergence, giant foxtail; conditions: 1000 g ai/ha, visual rating after approx. 10 d, 0 to 100 scale, 0 no effect, 100 complete control
Outline: as §1

[6] = test system: wheat (Triticum aestivum); test: Test A preemergence, wheat; conditions: 1000 g ai/ha, visual rating after approx. 10 d, 0 to 100 scale, 0 no effect, 100 complete control
Excerpt: as §2

corn (Zea mays) [7] = test: Test A preemergence, corn; conditions: 1000 g ai/ha, visual rating after approx. 10 d, 0 to 100 scale, 0 no effect, 100 complete control
Excerpt: as §2

[8] = test system: pigweed (Amaranthus retroflexus); test: Test A preemergence, pigweed; conditions: 1000 g ai/ha, visual rating after approx. 10 d, 0 to 100 scale, 0 no effect, 100 complete control
Outline: as §1

[9] = test system: barnyardgrass (Echinochloa crus-galli); test: Test A postemergence, barnyardgrass; conditions: 1000 g ai/ha, visual rating after approx. 10 d, 0 to 100 scale, 0 no effect, 100 complete control
Outline: as §1

[10] = test system: crabgrass (large crabgrass, Digitaria sanguinalis); test: Test A postemergence, crabgrass; conditions: 1000 g ai/ha, visual rating after approx. 10 d, 0 to 100 scale, 0 no effect, 100 complete control
Excerpt: as §2

[11] = test system: morningglory (Ipomoea spp.); test: Test A postemergence, morningglory; conditions: 1000 g ai/ha, visual rating after approx. 10 d, 0 to 100 scale, 0 no effect, 100 complete control
Excerpt: as §2

[12] = test system: velvetleaf (Abutilon theophrasti); test: Test A postemergence, velvetleaf; conditions: 1000 g ai/ha, visual rating after approx. 10 d, 0 to 100 scale, 0 no effect, 100 complete control
Excerpt: as §2

[13] = test system: foxtail, giant (giant foxtail, Setaria faberii); test: Test A postemergence, giant foxtail; conditions: 1000 g ai/ha, visual rating after approx. 10 d, 0 to 100 scale, 0 no effect, 100 complete control
Outline: as §1

[14] = test system: wheat (Triticum aestivum); test: Test A postemergence, wheat; conditions: 1000 g ai/ha, visual rating after approx. 10 d, 0 to 100 scale, 0 no effect, 100 complete control
Outline: as §1

corn (Zea mays) [15] = test: Test A postemergence, corn; conditions: 1000 g ai/ha, visual rating after approx. 10 d, 0 to 100 scale, 0 no effect, 100 complete control
Outline: as §1

[16] = test system: pigweed (Amaranthus retroflexus); test: Test A postemergence, pigweed; conditions: 1000 g ai/ha, visual rating after approx. 10 d, 0 to 100 scale, 0 no effect, 100 complete control
Outline: as §1

[17] = test system: barnyardgrass (Echinochloa crus-galli); test: Test B flooded paddy test, barnyardgrass; conditions: 250 g ai/ha; applied to paddy water at 2-leaf stage; 13 to 15 d; scale 0 no effect to 100 complete control
Outline: (§3)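 Plants at the 2-leaf stage were flooded to 3 cm above soil, and test compounds were applied directly into the paddy water, which was held at that depth throughout. After 13 to 15 d in a greenhouse, injury was rated visually against untreated controls on a 0–100 scale (0 no effect, 100 complete control).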

[18] = test system: ducksalad (Heteranthera limosa); test: Test B flooded paddy test, ducksalad; conditions: 250 g ai/ha; applied to paddy water at 2-leaf stage; 13 to 15 d; scale 0 no effect to 100 complete control
Outline: as §3

rice (Oryza sativa) = test: Test B flooded paddy test, rice; conditions: 250 g ai/ha; applied to paddy water at 2-leaf stage; 13 to 15 d; scale 0 no effect to 100 complete control
Outline: as §3

[19] = test system: sedge, umbrella (small-flower umbrella sedge, Cyperus difformis); test: Test B flooded paddy test, umbrella sedge; conditions: 250 g ai/ha; applied to paddy water at 2-leaf stage; 13 to 15 d; scale 0 no effect to 100 complete control
Outline: as §3

| SMILES | Plant response rating, Barnyardgrass [1] | Plant response rating, Crabgrass [2] | Plant response rating, Morningglory [3] | Plant response rating, Velvetleaf [4] | Plant response rating, Foxtail, Giant [5] | Plant response rating, Wheat [6] | Plant response rating, Corn (corn (Zea mays) [7]) | Plant response rating, Pigweed [8] | Plant response rating, Barnyardgrass [9] | Plant response rating, Crabgrass [10] | Plant response rating, Morningglory [11] | Plant response rating, Velvetleaf [12] | Plant response rating, Foxtail, Giant [13] | Plant response rating, Wheat [14] | Plant response rating, Corn (corn (Zea mays) [15]) | Plant response rating, Pigweed [16] | Plant response rating, Flood, Barnyardgrass [17] | Plant response rating, Flood, Ducksalad [18] | Plant response rating, Flood, Rice (rice (Oryza sativa)) | Plant response rating, Flood, Sedge, Umbrella [19] |
| --- | --- | --- | --- | --- | --- | --- | --- | --- | --- | --- | --- | --- | --- | --- | --- | --- | --- | --- | --- | --- |
| O=C(Nc1ccccc1Cl)C1C(=O)OCC1c1ccc(F)cc1 (racemic) [Compound 1] | 0 | 70 | 0 | 0 | 40 | 0 | 0 | 0 | 20 | 60 | 0 | 0 | 40 | 0 | 0 | 20 | – | – | – | – |
| O=C(Nc1ccccc1C(F)(F)F)C1C(=O)OCC1c1ccc(F)cc1 (stereo not drawn) [Compound 6] | 20 | 80 | 0 | 0 | 80 | 0 | 0 | 0 | 20 | 80 | 0 | 0 | 80 | 0 | 0 | 0 | 0 | 0 | 0 | 0 |
